Measurements published in the NIST ThermoML archive (doi:10.1016/j.jct.2008.06.017).

Tests used:
[1] = Liquid, Vibrating tube method
[2] = xn = mol fraction of the nth substance listed; conditions: Liquid, Vibrating tube method

C=CCOC(=O)C(=C)C [2-propenyl 2-methylpropenoate]
[1]
Conditions | mass density [kg/m3]
293.15 K | 932.965
303.15 K | 922.525
313.15 K | 912.072

C=CCOC(=O)C(=C)C [2-propenyl 2-methylpropenoate] + COC(=O)OC
[2]
Conditions | mass density [kg/m3]
293.15 K, x2 = 0 | 932.965
293.15 K, x2 = 0.0254 | 935.07
293.15 K, x2 = 0.0498 | 937.164
293.15 K, x2 = 0.1006 | 941.619
293.15 K, x2 = 0.1507 | 946.22
293.15 K, x2 = 0.2 | 950.913
293.15 K, x2 = 0.2505 | 955.966
293.15 K, x2 = 0.2999 | 961.134
293.15 K, x2 = 0.3499 | 966.623
293.15 K, x2 = 0.4005 | 972.4
293.15 K, x2 = 0.449 | 978.208
293.15 K, x2 = 0.5 | 984.616
293.15 K, x2 = 0.5499 | 991.215
293.15 K, x2 = 0.5991 | 998.042
293.15 K, x2 = 0.6502 | 1005.49
293.15 K, x2 = 0.7 | 1013.17
293.15 K, x2 = 0.7502 | 1021.34
293.15 K, x2 = 0.8001 | 1029.9
293.15 K, x2 = 0.8499 | 1039
293.15 K, x2 = 0.9002 | 1048.71
293.15 K, x2 = 0.9499 | 1058.87
293.15 K, x2 = 0.975 | 1064.27
303.15 K, x2 = 0 | 922.525
303.15 K, x2 = 0.0253 | 924.591
303.15 K, x2 = 0.0501 | 926.656
303.15 K, x2 = 0.101 | 931.041
303.15 K, x2 = 0.15 | 935.458
303.15 K, x2 = 0.1999 | 940.145
303.15 K, x2 = 0.2505 | 945.101
303.15 K, x2 = 0.2999 | 950.165
303.15 K, x2 = 0.3499 | 955.527
303.15 K, x2 = 0.4003 | 961.195
303.15 K, x2 = 0.447 | 966.662
303.15 K, x2 = 0.5001 | 973.205
303.15 K, x2 = 0.5501 | 979.68
303.15 K, x2 = 0.5994 | 986.387
303.15 K, x2 = 0.6502 | 993.661
303.15 K, x2 = 0.7001 | 1001.19
303.15 K, x2 = 0.7503 | 1009.19
303.15 K, x2 = 0.8001 | 1017.58
303.15 K, x2 = 0.8499 | 1026.47
303.15 K, x2 = 0.9002 | 1035.99
303.15 K, x2 = 0.9499 | 1046
303.15 K, x2 = 0.975 | 1051.3
313.15 K, x2 = 0 | 912.072
313.15 K, x2 = 0.0247 | 914.028
313.15 K, x2 = 0.0499 | 916.075
313.15 K, x2 = 0.1002 | 920.29
313.15 K, x2 = 0.1496 | 924.626
313.15 K, x2 = 0.1997 | 929.2
313.15 K, x2 = 0.2495 | 933.94
313.15 K, x2 = 0.2999 | 938.979
313.15 K, x2 = 0.3502 | 944.239
313.15 K, x2 = 0.3999 | 949.688
313.15 K, x2 = 0.4499 | 955.431
313.15 K, x2 = 0.4997 | 961.436
313.15 K, x2 = 0.5503 | 967.862
313.15 K, x2 = 0.6001 | 974.504
313.15 K, x2 = 0.6497 | 981.462
313.15 K, x2 = 0.7001 | 988.916
313.15 K, x2 = 0.7498 | 996.664
313.15 K, x2 = 0.7998 | 1004.93
313.15 K, x2 = 0.85 | 1013.71
313.15 K, x2 = 0.8998 | 1023
313.15 K, x2 = 0.9498 | 1032.83
313.15 K, x2 = 0.9746 | 1037.94

C=C(C)C(=O)OCCCC [butyl 2-methyl-2-propenoate]
[1]
Conditions | mass density [kg/m3]
293.15 K | 895.231
303.15 K | 885.991
313.15 K | 876.19

C=C(C)C(=O)OCCCC [butyl 2-methyl-2-propenoate] + COC(=O)OC
[2]
Conditions | mass density [kg/m3]
293.15 K, x2 = 0 | 895.231
293.15 K, x2 = 0.0253 | 897.401
293.15 K, x2 = 0.0496 | 899.525
293.15 K, x2 = 0.1 | 904.247
293.15 K, x2 = 0.1512 | 909.195
293.15 K, x2 = 0.2002 | 914.234
293.15 K, x2 = 0.2501 | 919.652
293.15 K, x2 = 0.3 | 925.514
293.15 K, x2 = 0.3496 | 931.664
293.15 K, x2 = 0.4002 | 938.381
293.15 K, x2 = 0.45 | 945.36
293.15 K, x2 = 0.4998 | 952.885
293.15 K, x2 = 0.5499 | 960.906
293.15 K, x2 = 0.6 | 969.499
293.15 K, x2 = 0.6499 | 978.774
293.15 K, x2 = 0.7003 | 988.865
293.15 K, x2 = 0.7501 | 999.691
293.15 K, x2 = 0.7998 | 1011.24
293.15 K, x2 = 0.8502 | 1024.04
293.15 K, x2 = 0.8997 | 1037.82
293.15 K, x2 = 0.9499 | 1053.1
293.15 K, x2 = 0.9747 | 1061.18
303.15 K, x2 = 0 | 885.991
303.15 K, x2 = 0.0255 | 888.128
303.15 K, x2 = 0.0511 | 890.378
303.15 K, x2 = 0.0984 | 894.561
303.15 K, x2 = 0.1496 | 899.445
303.15 K, x2 = 0.1998 | 904.542
303.15 K, x2 = 0.251 | 909.93
303.15 K, x2 = 0.3 | 915.538
303.15 K, x2 = 0.3498 | 921.462
303.15 K, x2 = 0.4002 | 927.876
303.15 K, x2 = 0.4505 | 934.768
303.15 K, x2 = 0.5001 | 942.022
303.15 K, x2 = 0.5497 | 949.757
303.15 K, x2 = 0.6003 | 958.326
303.15 K, x2 = 0.6507 | 967.581
303.15 K, x2 = 0.7003 | 977.274
303.15 K, x2 = 0.7503 | 987.854
303.15 K, x2 = 0.8003 | 999.303
303.15 K, x2 = 0.8497 | 1011.72
303.15 K, x2 = 0.8997 | 1025.31
303.15 K, x2 = 0.95 | 1040.3
303.15 K, x2 = 0.9746 | 1048.26
313.15 K, x2 = 0 | 876.19
313.15 K, x2 = 0.0248 | 878.23
313.15 K, x2 = 0.0506 | 880.426
313.15 K, x2 = 0.1009 | 884.856
313.15 K, x2 = 0.1505 | 889.457
313.15 K, x2 = 0.2003 | 894.361
313.15 K, x2 = 0.2512 | 899.681
313.15 K, x2 = 0.3005 | 905.153
313.15 K, x2 = 0.3502 | 910.961
313.15 K, x2 = 0.4009 | 917.353
313.15 K, x2 = 0.4509 | 924.075
313.15 K, x2 = 0.4999 | 931.103
313.15 K, x2 = 0.5506 | 938.855
313.15 K, x2 = 0.6 | 947.003
313.15 K, x2 = 0.6502 | 955.954
313.15 K, x2 = 0.7002 | 965.503
313.15 K, x2 = 0.7503 | 975.976
313.15 K, x2 = 0.7999 | 987.089
313.15 K, x2 = 0.8501 | 999.417
313.15 K, x2 = 0.8998 | 1012.69
313.15 K, x2 = 0.9498 | 1027.3
313.15 K, x2 = 0.9751 | 1035.15

COC(=O)OC [dimethyl carbonate]
[1]
Conditions | mass density [kg/m3]
293.15 K | 1069.79
303.15 K | 1056.75
313.15 K | 1043.37

COC(=O)OC [dimethyl carbonate] + C=C(C)C(=O)OCCCC
[2], x1 = 1
Conditions | mass density [kg/m3]
293.15 K | 1069.79
303.15 K | 1056.75
313.15 K | 1043.37
